Values quoted from earlier work in the CATMoS acute toxicity set (Mansouri et al. 2021).
“And” between values parts separate entries of the source, which are not always exact repeats. Equal values may be shown once.

Assay: rat acute oral toxicity
Conditions: in vivo

Structure (SMILES) | LD50
CCCCC(CC)CCC(CC(C)C)OS(=O)(=O)O (stereo unspecified) | 1250 mg/kg
Fc1c(Cl)c(F)c2nc(C(F)(F)F)[nH]c2c1Cl | 1.67 mg/kg
CN(C)CCOc1ccc(/C(=C(/CCCl)c2ccccc2)c2ccccc2)cc1 | 1700 mg/kg and 3000 mg/kg
CC[C@@H](COC(=O)c1cc(OC)c(OC)c(OC)c1)N(C)CCN(C)[C@@H](CC)COC(=O)c1cc(OC)c(OC)c(OC)c1 | 1500 mg/kg
CCCC(CCC)C(=O)O[C@H]1C[C@H]2CC[C@@H](C1)[N+]2(C)C | 705 mg/kg
CCN(CC(=O)O)S(=O)(=O)C(F)(F)C(F)(F)C(F)(F)C(F)(F)C(F)(F)C(F)(F)C(F)(F)C(F)(F)F | 619 mg/kg
NNc1nncc2ccccc12 | 90 mg/kg
CCN(CC)c1cccc(OC(=O)NC)c1 | 91 mg/kg
C=CC(CCCCC)OC(C)=O (stereo unspecified) | 850 mg/kg
O=C1CC(=O)N(c2ccccc2)N1c1ccccc1 | 1000 mg/kg
Cc1ccc(C=O)o1 | 2200 mg/kg
CCOC(C)CO (stereo unspecified) | 7110 mg/kg
CCOc1c(N2CCOCC2)cnn(C)c1=O | 1900 mg/kg
Cc1nc(-c2cccnc2)sc1[N+](=O)[O-] | 815 mg/kg
Cc1ccc(S(=O)(=O)N(C)N=O)cc1 | 2700 mg/kg
C[C@H]1C(=O)O[C@@H]2CCN3CC=C(COC(=O)[C@](C)(O)[C@]1(C)O)[C@H]23 | 66 mg/kg
Cc1nc2n(c(=O)c1CCN1CCC(c3noc4cc(F)ccc34)CC1)CCC[C@H]2O | 65 mg/kg
C/C=C1/C[C@@H](C)[C@](O)(CO)C(=O)OCC2=CC[N+]3([O-])CC[C@@H](OC1=O)[C@@H]23 (stereo partly specified) | 48 mg/kg
CC(C)(C)C1CCC(O)CC1 (stereo unspecified) | 4200 mg/kg
CCCCNCCC[Si](OC)(OC)OC | 12800 mg/kg
Cc1ccc2c(Cl)cc(Cl)c(O)c2n1 | 660 mg/kg
CC(C)c1nnc(NS(=O)(=O)c2ccc(N)cc2)s1 | 3940 mg/kg
CC1(C)COS(=O)(=O)OC1 | 10 mg/kg

Structure (SMILES) | LD50
CCOc1ccc(NC(=O)C(N=Nc2ccc(-c3ccc(N=NC(C(C)=O)C(=O)Nc4ccc(OCC)cc4)c(Cl)c3)cc2Cl)C(C)=O)cc1 (stereo unspecified) | 2230 mg/kg
CCOC(=O)c1c[n+](CC)c2n(c1=O)C(C)CCC2 (stereo unspecified) | 1350 mg/kg
O=[N+]([O-])OC1COC2C(O)COC12 (stereo unspecified) | 2300 mg/kg
CC(C)c1c(C(=O)c2cccnc2)c2ccccc2n1C | 2400 mg/kg
c1ccc(CC2CCNCC2)cc1 | 540 mg/kg
CCOC(=O)C1(c2ccccc2)CCN(CCc2ccc(N)cc2)CC1 | 175 mg/kg
C[N+](C)(C)CCI | 700 mg/kg
O=C(OC[C@H]1O[C@@H](OC(=O)c2cc(O)c(O)c(OC(=O)c3cc(O)c(O)c(O)c3)c2)[C@H](OC(=O)c2cc(O)c(O)c(OC(=O)c3cc(O)c(O)c(O)c3)c2)[C@@H](OC(=O)c2cc(O)c(O)c(OC(=O)c3cc(O)c(O)c(O)c3)c2)[C@@H]1OC(=O)c1cc(O)c(O)c(OC(=O)c2cc(O)c(O)c(O)c2)c1)c1cc(O)c(O)c(OC(=O)c2cc(O)c(O)c(O)c2)c1 | 2260 mg/kg
C=CBr | 500 mg/kg
FC1(F)CC(C2CC3(Cl)C(Cl)=C(Cl)C2(Cl)C3(Cl)Cl)C1(F)F (stereo unspecified) | 550 mg/kg
CCOC1c2ccccc2C(=O)N(C)c2ccccc21 (stereo unspecified) | 4000 mg/kg
CC(Br)(CCl)CBr (stereo unspecified) | 780 mg/kg
CCCC(=O)C1c2cccc(O)c2C(=O)c2c(O)cccc21 | 1580 mg/kg
ON=CC=NO | 119 mg/kg
CC(=O)CCCCn1c(=O)c2c(ncn2C)n(C)c1=O | 1170 mg/kg
CC(C)(C)NCC(O)COc1ccccc1C#N (stereo unspecified) | 639 mg/kg
CCCCC(CC)CN(CCO)CC(CC)CCCC (stereo unspecified) | 4920 mg/kg
Cc1ccc(C2=CCN(CC=Cc3ccc4c(c3)CCC(=O)N4)CC2)cc1 | 500 mg/kg
FC(F)(F)c1nc2c(Cl)c(Cl)ccc2[nH]1 | 13.1 mg/kg
Cc1ccc(OC(=O)c2ccccc2)cc1 | 2640 mg/kg
CC(C)NCC(O)c1ccc2ccccc2c1 (stereo unspecified) | 900 mg/kg
O=C(O)c1cc(Cl)cc([N+](=O)[O-])c1Cl | 2640 mg/kg and 3500 mg/kg
C=CC(=O)OCCCl | 180 mg/kg

Structure (SMILES) | LD50
CN(C)N=O | 37 mg/kg
c1ccc(CCc2ccccc2)cc1 | 4520 mg/kg
Cc1c(C(=O)NCCO)[n+]([O-])c2ccccc2[n+]1[O-] | 1720 mg/kg
CCC(C)=CCCC(C)=O | 3570 mg/kg
CCN1CCCc2ccccc21 | 1780 mg/kg
COc1ccc2c(c1)OC(C)(C)C(c1ccccc1)C2c1ccc(OCC2CO2)cc1 (stereo unspecified) | 800 mg/kg
OCCSSc1c(Cl)c(Cl)c(Cl)c(Cl)c1Cl | 2860 mg/kg
CC(Cl)CCC(C)Cl (stereo unspecified) | 4000 mg/kg
CC(C)NC(=N)NC(=N)Nc1ccc(Cl)cc1 | 58 mg/kg
CN(C)CC(=O)N1Cc2ccccc2CC2CCCCC21 (stereo unspecified) | 1400 mg/kg
Nc1ccc(OP(=O)(Oc2ccc(N)cc2)Oc2ccc(N)cc2)cc1 | 138 mg/kg
COc1c(C(C)(C)C)cc([N+](=O)[O-])c(C)c1[N+](=O)[O-] | 339 mg/kg
C=C(C)C(=O)OCC(C)C | 9590 mg/kg
O=C(NC(=O)c1c(F)cccc1F)Nc1cc(Cl)c(Oc2ncc(C(F)(F)F)cc2Cl)c(Cl)c1 | 445 mg/kg
CCN(CC)S(=O)(=O)c1c(Cl)c(Cl)c(Cl)c2[nH]c(C(F)(F)F)nc12 | 11.2 mg/kg
COCc1c(CO)cnc(C)c1O | 2150 mg/kg
CC(c1ccc(OC#N)cc1)c1ccc(OC#N)cc1 | 1000 mg/kg
CSC(C)=NOC(=O)N(C)SSN(C)C(=O)ON=C(C)SC | 190 mg/kg
CC1=C(C(=O)Nc2ccccc2)CCCO1 | 15000 mg/kg
c1cncc(C2=NCCC2)c1 | 1880 mg/kg
CNC(N)=NC(=N)N | 1750 mg/kg
CC(C)(c1ccccc1)c1ccc(O)cc1 | 1770 mg/kg
COC(=O)C1=C(C)NC(C)=C(C(=O)OCCN(C)Cc2ccccc2)C1c1cccc([N+](=O)[O-])c1 (stereo unspecified) | 184 mg/kg and 320 mg/kg

Structure (SMILES) | LD50
CCCCCC(C)NC (stereo unspecified) | 320 mg/kg
FC(F)(F)c1ccccc1 | 15000 mg/kg
O=P(CCCl)(OCCCl)OCCCl | 880 mg/kg
CN1CCCN(C)C1=O | 1770 mg/kg
CC(C(=O)O)c1ccc(Oc2nccs2)cc1 (stereo unspecified) | 135 mg/kg
COc1ccc2c(c1)Sc1ccccc1N2C1CCCN(C)C1 (stereo unspecified) | 750 mg/kg
NC(=O)OCC(O)COc1ccc(Cl)cc1 (stereo unspecified) | 744 mg/kg
C=C1CC[C@H](O)C/C1=C/C=C1\CCC[C@]2(C)[C@@H]([C@H](C)/C=C/[C@H](C)C(C)C)CC[C@@H]12 | 10 mg/kg
CCCCCCCCCCCCOC(C[n+]1ccccc1)c1ccc(C(C)C)cc1 (stereo unspecified) | 250 mg/kg
COc1ccc(OC)c(Cc2cnc3nc(N)nc(N)c3c2C)c1 | 1170 mg/kg
CCC(=O)OCC=Cc1ccccc1 | 3400 mg/kg
NC(=O)c1cc2cc(CN3CCCCC3)ccc2o1 | 250 mg/kg
c1ccc(N(CCN2CCCCC2)Cc2ccccn2)cc1 | 806 mg/kg and 740 mg/kg
CCCCOC(=O)Cc1ccc(N(CCCl)CCCl)cc1 | 20 mg/kg
CN(C)c1ccc(-c2nc(=O)n(C)nc2-c2ccc(N(C)C)cc2)cc1 | 3000 mg/kg
CCOP(=S)(OCC)SC1CCSC1 (stereo unspecified) | 20 mg/kg
C=CC(=O)Nc1ccc(O)cc1 | 930 mg/kg
CN(C)C#N | 146 mg/kg
COC(=O)C(C)N(C(=O)c1ccccc1)c1ccc(F)c(Cl)c1 (stereo unspecified) | 1200 mg/kg
COc1cc(C2c3cc4c(cc3C(OC3OC5COC(c6ccccc6)OC5C(O)C3O)C3COC(=O)C23)OCO4)cc(OC)c1O (stereo unspecified) | 823 mg/kg
CCCn1c2ccccc2c2cc(N)ccc21 | 423 mg/kg
Nc1ccc2c(O)cc(S(=O)(=O)O)cc2c1 | 11500 mg/kg
Oc1ccc(O)c2[nH]c(C(F)(F)F)nc12 | 29 mg/kg

Structure (SMILES) | LD50
CCCCOc1c(Cl)c(Cl)c(Cl)c(Cl)c1Cl | 600 mg/kg
Nc1ccc(Cl)cc1[N+](=O)[O-] | 400 mg/kg
OCC1CC2CCC1C2 (stereo unspecified) | 1600 mg/kg
COc1ccc2c(c1)CCC(c1ccccc1)=C2c1ccc(OCCN2CCCC2)cc1 | 302 mg/kg
COc1c(OP(=S)(OCC(C)C)OCC(C)C)cnn(C)c1=O | 135 mg/kg
O=c1[nH]ncc2ccccc12 | 370 mg/kg
Cc1nn(C)c2c1NCc1ccccc1O2 | 1360 mg/kg
OCC(CBr)(CBr)CBr | 1630 mg/kg
COc1ccc2c3c1O[C@H]1[C@@H](OC(=O)c4cccnc4)C=C[C@H]4[C@@H](C2)N(C)CC[C@@]341 | 840 mg/kg
Cc1ccc2[nH]c(C(F)(F)F)nc2c1Br | 64 mg/kg
CC1C(=O)OC2CCN3CC=C(COC(=O)C(C)(O)C1(C)O)C23 (stereo unspecified) | 45.5 mg/kg
CCN1CCCC(Nc2cc(C)nc(N=C(N)Nc3ccc(Cl)c(Cl)c3)n2)C1 (stereo unspecified) | 1040 mg/kg
CCOP(=O)(OCC)OC(=CBr)c1ccc(Cl)cc1Cl | 21.4 mg/kg
CCOP(=O)(OCC)Oc1ccc(Cl)cc1Cl | 100 mg/kg
CC(C(=O)OCCOCCO)c1ccc2c(c1)C(=O)Cc1ccccc1O2 (stereo unspecified) | 260 mg/kg
CNC(=O)c1cnn(C(C)(C)C)c1C#N | 392 mg/kg
COc1ccc2oc(N)nc2c1 | 1000 mg/kg
CCC1NC(=O)c2cc(N)ccc2O1 (stereo unspecified) | 1890 mg/kg
CN1CC(CC#N)CC2c3cccc4[nH]c(Cl)c(c34)CC21 (stereo unspecified) | 290 mg/kg
COc1ccc(OC)c(CC(C)N)c1 (racemic) | 171 mg/kg
COC(=O)OC | 13000 mg/kg
CCOC(C1=NCC(C)(C)CN1)c1ccc(OC)cc1 (stereo unspecified) | 625 mg/kg
CC(C(=O)O)c1ccc(C(=O)c2ccccc2)s1 (stereo unspecified) | 181 mg/kg

Structure (SMILES) | LD50
CCCNC(=O)C(C)Nc1ccc(OCC)cc1 (stereo unspecified) | 3000 mg/kg
CN(C)C(=O)C(CCN1CCC(O)(c2ccc(Cl)cc2)CC1)(c1ccccc1)c1ccccc1 | 185 mg/kg and 98 mg/kg
CCC(O)(CC)c1[nH]ncc1Cl | 236 mg/kg
O=C(CI)NC(=O)CI | 650 mg/kg
COP(=S)(OC)SC1CCSc2ccccc21 (stereo unspecified) | 5 mg/kg
CC(=O)OC1(C)CC(C)C(=O)C(C(O)CC2CC(=O)NC(=O)C2)C1 (stereo unspecified) | 0.158 mg/kg
O=[N+]([O-])O[C@@H]1CO[C@H]2[C@@H]1OC[C@@H]2O | 2010 mg/kg
C=CCNC(=O)OCC(O)C1COc2ccccc2O1 (stereo unspecified) | 1500 mg/kg
CCO[SiH](Cl)OCC | 6300 mg/kg
CN=C(O)O/N=C1/COCS1 | 49 mg/kg
NCC(c1cccs1)N1CCCCC1 (stereo unspecified) | 1480 mg/kg
CC(=O)C1(O)Cc2c(O)c3c(c(O)c2C(OC2CC(N)C(O)C(C)O2)C1)C(=O)c1c(O)cccc1C3=O (stereo unspecified) | 23 mg/kg
CNC(=S)S | 108 mg/kg
CCC(COCC1CO1)(COCC1CO1)COCC1CO1 (stereo unspecified) | 3400 mg/kg
Cc1cc(O)ccc1[N+](=O)[O-] | 1200 mg/kg
CCOP(=S)(OCC)SCn1nc(C)ccc1=O | 45 mg/kg
NC(=O)c1ccc([N+](=O)[O-])cc1 | 476 mg/kg
O=C1C=CC(=O)N1c1c(F)c(F)c(F)c(N2C(=O)C=CC2=O)c1F | 2100 mg/kg
COP(=S)(NC(C)C)Oc1ccc(C)cc1[N+](=O)[O-] (stereo unspecified) | 309 mg/kg
COc1cc2nc(N3CCC(N(C)C(=O)c4ccccc4)CC3)nc(N)c2cc1OC | 1000 mg/kg
Cc1ccccc1-n1c(C)nc2ccccc2c1=O | 185 mg/kg
